{
  "source": "patent US11446287B2",
  "about": "“Compounds and methods for EP300 or CBP modulation and indications therefor” (Opna Immuno-Oncology SA, priority 2019, dated 2022)",
  "data": [
    {"target": "T1, Recombinant human CBP containing the bromodomain (CBP-BD (1043-1159)) (Homo sapiens, UniProt Q92793)", "T1 construct": "Recombinant human CBP bromodomain (CBP-BD (1043-1159)); made in house; host or cells: E. coli BL21-CodonPlus (DE3), modified pET vector", "T1 sequence (Q92793 1081-1197)": "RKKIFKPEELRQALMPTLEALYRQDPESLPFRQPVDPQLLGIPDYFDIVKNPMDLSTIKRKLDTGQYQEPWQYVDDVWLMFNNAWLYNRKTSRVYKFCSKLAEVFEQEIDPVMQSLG", "experiment": "CBP Alphascreen binding assay", "settings": "read-out: CREBBP (CBP) IC50", "how_it_was_run": "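Buffer: 50 mM HEPES pH 7.5, 50 mM NaCl, 0.01% BSA, 0.01% Triton X-100, 2 mM DTT. The signal was normalised to plate controls and fitted with a four-parameter curve to give IC50.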", "units": {"IC50": "µM"}, "values": [
      {"molecule": "CCOC(=O)c1cc(-c2cn(-c3ccc(F)cc3F)c3ncc(-c4c(C)noc4C)cc23)c(OCC)cc1O", "note": "[P-0248, ethyl 5-(1-(2,4-difluorophenyl)-5-(3,5-dimethylisoxazol-4-yl)-1H-pyrrolo[2,3-b]pyridin-3-yl)-4-ethoxy-2-hydroxybenzoate]", "IC50": "8 to 1000"},
      {"molecule": "CCOc1cc(O)c(C(=O)O)cc1-c1cn(-c2ccc(F)cc2F)c2ncc(-c3c(C)noc3C)cc12", "note": "[P-0249, 5-(1-(2,4-difluorophenyl)-5-(3,5-dimethylisoxazol-4-yl)-1H-pyrrolo[2,3-b]pyridin-3-yl)-4-ethoxy-2-hydroxybenzoic acid]", "IC50": "0.0001 to 1"},
      {"molecule": "CCOc1cc(OC)c(C(=O)O)cc1-c1cn(-c2ccc(F)cc2F)c2ncc(-c3c(C)noc3C)cc12", "note": "[P-0250, 5-(1-(2,4-difluorophenyl)-5-(3,5-dimethylisoxazol-4-yl)-1H-pyrrolo[2,3-b]pyridin-3-yl)-4-ethoxy-2-methoxybenzoic acid]", "IC50": "0.0001 to 1"},
      {"molecule": "Cc1noc(C)c1-c1cnc2c(c1)c(-c1ccc(C(=O)O)cc1OC(F)(F)F)cn2-c1cnccc1F", "note": "[P-0251, 4-(5-(3,5-dimethylisoxazol-4-yl)-1-(4-fluoropyridin-3-yl)-1H-pyrrolo[2,3-b]pyridin-3-yl)-3-(trifluoromethoxy)benzoic acid]", "IC50": "0.0001 to 1"},
      {"molecule": "Cc1noc(C)c1-c1cnc2c(c1)c(-c1ccc(C(=O)O)cc1OC(F)(F)F)cn2-c1cnccc1O", "note": "[P-0252, 4-(5-(3,5-dimethylisoxazol-4-yl)-1-(4-hydroxypyridin-3-yl)-1H-pyrrolo[2,3-b]pyridin-3-yl)-3-(trifluoromethoxy)benzoic acid]", "IC50": "0.0001 to 1"},
      {"molecule": "Cc1noc(C)c1-c1cnc2c(c1)c(-c1ccc(C(=O)O)cc1OC(F)(F)F)cn2-c1ccncc1Cl", "note": "[P-0253, 4-(1-(3-chloropyridin-4-yl)-5-(3,5-dimethylisoxazol-4-yl)-1H-pyrrolo[2,3-b]pyridin-3-yl)-3-(trifluoromethoxy)benzoic acid]", "IC50": "0.0001 to 1"},
      {"molecule": "Cc1noc(C)c1-c1cnc2c(c1)c(-c1ccc(C(=O)O)cc1OC(F)(F)F)cn2-c1c(F)cccc1C#N", "note": "[P-0254, 4-(1-(2-cyano-6-fluorophenyl)-5-(3,5-dimethylisoxazol-4-yl)-1H-pyrrolo[2,3-b]pyridin-3-yl)-3-(trifluoromethoxy)benzoic acid]", "IC50": "0.0001 to 1"},
      {"molecule": "COc1cc(C(=O)O)cc(C)c1-c1cn(-c2ccccc2)c2ncc(-c3c(C)noc3C)cc12", "note": "[P-0255, 4-(5-(3,5-dimethylisoxazol-4-yl)-1-phenyl-1H-pyrrolo[2,3-b]pyridin-3-yl)-3-methoxy-5-methylbenzoic acid]", "IC50": "0.0001 to 1"},
      {"molecule": "Cc1noc(C)c1-c1cnc2c(-c3ccc(C(=O)O)cc3C#N)c(C(F)(F)F)n([C@@H](C)c3ccccn3)c2c1", "note": "[P-0256, (S)-3-cyano-4-(6-(3,5-dimethylisoxazol-4-yl)-1-(1-(pyridin-2-yl)ethyl)-2-(trifluoromethyl)-1H-pyrrolo[3,2-b]pyridin-3-yl)benzoic acid]", "IC50": "0.0001 to 1"},
      {"molecule": "Cc1noc(C)c1-c1cnc2c(-c3cc(C(=O)O)ccc3Cl)c(C(F)(F)F)n([C@@H](C)c3ccccn3)c2c1", "note": "[P-0257, (S)-4-chloro-3-(6-(3,5-dimethylisoxazol-4-yl)-1-(1-(pyridin-2-yl)ethyl)-2-(trifluoromethyl)-1H-pyrrolo[3,2-b]pyridin-3-yl)benzoic acid]", "IC50": "0.0001 to 1"},
      {"molecule": "CCOc1cc(C(=O)O)cc(OCC)c1-n1cc(-c2cnn(CS(C)(=O)=O)c2)c2ncc(-c3c(C)noc3C)cc21", "note": "[P-0258, 4-(6-(3,5-dimethylisoxazol-4-yl)-3-(1-((methylsulfonyl)methyl)-1H-pyrazol-4-yl)-1H-pyrrolo[3,2-b]pyridin-1-yl)-3,5-diethoxybenzoic acid]", "IC50": "0.0001 to 1"},
      {"molecule": "CCOc1cc(C(=O)O)cc(OCC)c1-n1cc(-c2cn(C(C)C)nc2C)c2ncc(-c3c(C)noc3C)cc21", "note": "[P-0259, 4-(6-(3,5-dimethylisoxazol-4-yl)-3-(1-isopropyl-3-methyl-1H-pyrazol-4-yl)-1H-pyrrolo[3,2-b]pyridin-1-yl)-3,5-diethoxybenzoic acid]", "IC50": "0.0001 to 1"},
      {"molecule": "CCOc1cc(C(=O)O)cc(OCC)c1-n1cc(-c2cnn(CC(C)(C)O)c2)c2ncc(-c3c(C)noc3C)cc21", "note": "[P-0260, 4-(6-(3,5-dimethylisoxazol-4-yl)-3-(1-(2-hydroxy-2-methylpropyl)-1H-pyrazol-4-yl)-1H-pyrrolo[3,2-b]pyridin-1-yl)-3,5-diethoxybenzoic acid]", "IC50": "0.0001 to 1"},
      {"molecule": "CCOc1cc(C(=O)O)cc(OCC)c1-n1cc(-c2cnn(C(F)F)c2)c2ncc(-c3c(C)noc3C)cc21", "note": "[P-0261, 4-(3-(1-(difluoromethyl)-1H-pyrazol-4-yl)-6-(3,5-dimethylisoxazol-4-yl)-1H-pyrrolo[3,2-b]pyridin-1-yl)-3,5-diethoxybenzoic acid]", "IC50": "0.0001 to 1"},
      {"molecule": "CCOc1cc(C(=O)O)cc(OCC)c1-n1cc(-c2cnn(CCN(C)C)c2)c2ncc(-c3c(C)noc3C)cc21", "note": "[P-0262, 4-(3-(1-(2-(dimethylamino)ethyl)-1H-pyrazol-4-yl)-6-(3,5-dimethylisoxazol-4-yl)-1H-pyrrolo[3,2-b]pyridin-1-yl)-3,5-diethoxybenzoic acid]", "IC50": "0.0001 to 1"},
      {"molecule": "CCOc1cc(C(=O)O)cc(OCC)c1-n1cc(-c2cn(C)nc2C)c2ncc(-c3c(C)noc3C)cc21", "note": "[P-0263, 4-(3-(1,3-dimethyl-1H-pyrazol-4-yl)-6-(3,5-dimethylisoxazol-4-yl)-1H-pyrrolo[3,2-b]pyridin-1-yl)-3,5-diethoxybenzoic acid]", "IC50": "0.0001 to 1"},
      {"molecule": "CCOc1cc(C(=O)O)cc(OCC)c1-n1cc(-c2cnn(CC3CC3)c2)c2ncc(-c3c(C)noc3C)cc21", "note": "[P-0264, 4-(3-(1-(cyclopropylmethyl)-1H-pyrazol-4-yl)-6-(3,5-dimethylisoxazol-4-yl)-1H-pyrrolo[3,2-b]pyridin-1-yl)-3,5-diethoxybenzoic acid]", "IC50": "0.0001 to 1"},
      {"molecule": "CCOc1cc(C(=O)O)cc(OCC)c1-n1cc(-c2cnn(C3CC3)c2)c2ncc(-c3c(C)noc3C)cc21", "note": "[P-0265, 4-(3-(1-cyclopropyl-1H-pyrazol-4-yl)-6-(3,5-dimethylisoxazol-4-yl)-1H-pyrrolo[3,2-b]pyridin-1-yl)-3,5-diethoxybenzoic acid]", "IC50": "0.0001 to 1"},
      {"molecule": "CCOc1cc(C(=O)O)cc(OCC)c1-n1cc(-c2cnn(CCC#N)c2)c2ncc(-c3c(C)noc3C)cc21", "note": "[P-0266, 4-(3-(1-(2-cyanoethyl)-1H-pyrazol-4-yl)-6-(3,5-dimethylisoxazol-4-yl)-1H-pyrrolo[3,2-b]pyridin-1-yl)-3,5-diethoxybenzoic acid]", "IC50": "0.0001 to 1"},
      {"molecule": "CCOc1cc(C(=O)O)cc(OCC)c1-n1cc(-c2cnn(CC(=O)N(C)C)c2)c2ncc(-c3c(C)noc3C)cc21", "note": "[P-0267, 4-(3-(1-(2-(dimethylamino)-2-oxoethyl)-1H-pyrazol-4-yl)-6-(3,5-dimethylisoxazol-4-yl)-1H-pyrrolo[3,2-b]pyridin-1-yl)-3,5-diethoxybenzoic acid]", "IC50": "0.0001 to 1"},
      {"molecule": "Cc1noc(C)c1-c1cnc2c(c1)c(-c1cc(C(=O)O)ccc1OC(F)(F)F)cn2-c1ccc(F)cc1F", "note": "[P-0268, 3-(1-(2,4-difluorophenyl)-5-(3,5-dimethylisoxazol-4-yl)-1H-pyrrolo[2,3-b]pyridin-3-yl)-4-(trifluoromethoxy)benzoic acid]", "IC50": "0.0001 to 1"},
      {"molecule": "Cc1noc(C)c1-c1cnc2c(-c3ccc(F)cc3F)cn(-c3c(OC(C)C)cc(C(=O)O)cc3OC(C)C)c2c1", "note": "[P-0269, 4-(3-(2,4-difluorophenyl)-6-(3,5-dimethylisoxazol-4-yl)-1H-pyrrolo[3,2-b]pyridin-1-yl)-3,5-diisopropoxybenzoic acid]", "IC50": "0.0001 to 1"},
      {"molecule": "CCOc1cc(C(=O)O)cc(OCC)c1-n1cc(CC2CCC2)c2ncc(-n3c(C)nnc3C)cc21", "note": "[P-0270, 4-(3-(cyclobutylmethyl)-6-(3,5-dimethyl-4H-1,2,4-triazol-4-yl)-1H-pyrrolo[3,2-b]pyridin-1-yl)-3,5-diethoxybenzoic acid]", "IC50": "1 to 8"},
      {"molecule": "CCOc1cc(C(=O)O)cc(OCC)c1-n1cc(C2CCC(F)(F)CC2)c2ncc(-c3c(C)noc3C)cc21", "note": "[P-0271, 4-(3-(4,4-difluorocyclohexyl)-6-(3,5-dimethylisoxazol-4-yl)-1H-pyrrolo[3,2-b]pyridin-1-yl)-3,5-diethoxybenzoic acid]", "IC50": "0.0001 to 1"},
      {"molecule": "Cc1noc(C)c1-c1cnc2c(c1)c(-c1cnn(CC(=O)O)c1)cn2-c1ncccc1C#CC1CC1", "note": "[P-0272, 2-(4-(1-(3-(cyclopropylethynyl)pyridin-2-yl)-5-(3,5-dimethylisoxazol-4-yl)-1H-pyrrolo[2,3-b]pyridin-3-yl)-1H-pyrazol-1-yl)acetic acid]", "IC50": "0.0001 to 1"},
      {"molecule": "Cc1noc(C)c1-c1cnc2c(c1)c(-c1ccc(C(=O)O)cc1OC(F)F)cn2-c1ccccc1", "note": "[P-0273, 3-(difluoromethoxy)-4-(5-(3,5-dimethylisoxazol-4-yl)-1-phenyl-1H-pyrrolo[2,3-b]pyridin-3-yl)benzoic acid]", "IC50": "0.0001 to 1"},
      {"molecule": "Cc1noc(C)c1-c1cnc2c(-c3ccccc3)cn(-c3cc(C(=O)O)ccc3OC(F)(F)F)c2c1", "note": "[P-0274, 3-(6-(3,5-dimethylisoxazol-4-yl)-3-phenyl-1H-pyrrolo[3,2-b]pyridin-1-yl)-4-(trifluoromethoxy)benzoic acid]", "IC50": "0.0001 to 1"},
      {"molecule": "Cc1noc(C)c1-c1cnc2c(c1)c(-c1ccc(C(=O)O)cc1OC(C)C)cn2-c1ccccc1", "note": "[P-0275, 4-(5-(3,5-dimethylisoxazol-4-yl)-1-phenyl-1H-pyrrolo[2,3-b]pyridin-3-yl)-3-isopropoxybenzoic acid]", "IC50": "0.0001 to 1"},
      {"molecule": "Cc1noc(C)c1-c1cnc2c(c1)c(-c1ccc(C(=O)O)cc1OC1CCC1)cn2-c1ccccc1", "note": "[P-0276, 3-cyclobutoxy-4-(5-(3,5-dimethylisoxazol-4-yl)-1-phenyl-1H-pyrrolo[2,3-b]pyridin-3-yl)benzoic acid]", "IC50": "0.0001 to 1"},
      {"molecule": "Cc1noc(C)c1-c1cnc2c(c1)c(-c1ccc(C(=O)O)cc1OCC(F)F)cn2-c1ccccc1", "note": "[P-0277, 3-(2,2-difluoroethoxy)-4-(5-(3,5-dimethylisoxazol-4-yl)-1-phenyl-1H-pyrrolo[2,3-b]pyridin-3-yl)benzoic acid]", "IC50": "0.0001 to 1"}
    ]}
  ]
}
